Read-outs that look alike come from different tables or passages of the source.
Legend:
[1] = tested on: androgen binding site ZIP9 of the Sertoli cell line 93RS2; design: method as in PMID 35053053, PMID 35053017; settings: 93RS2 / L6 (cell line not separately stated); cited from earlier work
[2] = tested on: PASC1 cells; test: Transepithelial electrical resistance (TER) across PASC1 cell layers; assay type: cell-based, rat; settings: 10 nM testosterone or 10 µM IAPG, 0, 24, 48, 72 h, n = 6, means ± SEM
Method: TER measurements were performed as described. Briefly, 6.0 × 10^4 cells/cm^2 of androgen receptor (AR)- or ZIP9-knockdown PASC1 or non-treated PASC1 cells were seeded on 0.4 μm inserts of 24-well plates (Greiner bio one, Frickenhausen, Germany) and cultured for 48 h until they reached confluence. […] As testosterone was dissolved in ethanol (vehicle), the same volume of ethanol was added to the peptide-treated cells and untreated controls. TER measurements were made with a Millicell ERS-2 epithelial Volt-Ohm meter (Merck Millipore, Darmstadt, Germany). ΩXcm^2 was calculated according to the protocol of the manufacturer by setting the resistance of cell-free inserts to zero.
(§1) For silencing ZIP9 or AR expression, PASC1 cells were treated with commercially available siRNA directed against the expression of ZIP9 or the AR by following the manufacturer’s protocol (Silencer ® Select, siRNA Invitrogen, Darmstadt, Germany). The following oligonucleotides were used: 5′ […]tt3′ and 5′ […]ta 3′ (ZIP9-siRNA for ZIP9 silencing) and 5′[…]tt3′ plus 5′ […]ag 3′ (AR-siRNA for AR silencing). Negative control siRNA (nc-siRNA) was provided in the siRNA kit from the same manufacturer. After incubation of PASC1 for 48 h with ZIP9-siRNA, AR-siRNA, or nc-siRNA, preparation of samples for qRT-PCR, TER measurement, or immunofluorescence experiments were carried out as described above.

[3] = tested on: Cldn-1; test: Cldn-1 expression in PASC1 cells, immunofluorescence; assay type: cell-based, rat; settings: 10 nM testosterone or 10 µM IAPG, 24 h, n = 3 × 25
Method: (§2) PASC1 cells were plated at a density of 3.0 × 10^4 on 24-well plates (1 mL/well) and incubated 48 h at 37 °C and 5% CO2 until a confluence of roughly 80% was reached. Cells were rinsed with DPBS and fixed with 100% ice-cold methanol (Roth, Karlsruhe, Germany) on ice for 10 min directly or after stimulation with vehicle, 10 nM testosterone, or 1 µM P1 for 24 h. Cells were then washed with DPBS three times for 5 min, and then incubated in blocking solution (PBS with 3% BSA and 0.3% Triton X-100, both from Sigma-Aldrich) for 1 h at room temperature. The blocking solution was replaced by fresh blocking solution containing the primary antibodies for detection of either AR, p-Erk1/2, p-CREB/p-ATF-1, claudin-1 (Cldn-1), or zonula occludens-1 (ZO-1) (Supplementary Table S1) and incubated overnight at 4 °C. Cells were washed 3 times with DPBS for 3 min each at RT on an orbital shaker, freshly made blocking solution with the appropriate Alexafluor 488-conjugated donkey anti-rabbit secondary antibody was added for 1 h at room temperature on an orbital shaker. After washing 3 times with DPBS, images were obtained using an inverse Olympus IX81 microscope equipped with a fluorescence system. […] The data obtained were analyzed by GraphPad Prism5 (GraphPad Software, Inc., La Jolla, CA, USA).
as §1

[4] = tested on: CREB/ATF-1; test: p-CREB/p-ATF-1 immunofluorescence in PASC1 cells after AR or ZIP9 silencing; assay type: cell-based, rat; settings: 10 nM testosterone or 10 µM IAPG, 24 h, n = 3 × 25
[5] = tested on: ZO-1; test: ZO-1 expression in PASC1 cells, immunofluorescence; assay type: cell-based, rat; settings: 10 nM testosterone or 10 µM IAPG, 24 h, n = 3 × 25
Method: as §2, with “Cells were rinsed with DPBS and fixed with 100% ice-cold methanol (Roth, Karlsruhe, Germany) on ice for 10 min directly or after stimulation with vehicle, 10 nM testosterone, or 1 µM P1 for 24 h.” left out
as §1

[6] = tested on: Erk1/2; design: method as in PMID 35053053; settings: Sertoli cell line 93RS2, cited from earlier work
Source text: Activation of Erk1/2 by phosphorylation occurs in the so-called non-classical signaling pathway of testosterone.

For IAPG, the “Prevention of T-BSA-FITC binding” value [1] is listed as “Its binding can be prevented”, the “TJ formation (TER)” value ([2]; AR-siRNA) is listed as “had the same effect” and the “TJ formation (TER)” value ([2]; ZIP9-siRNA) is listed as “failed to stimulate TJ formation”. For the same compound, the “TJ formation (TER)” value ([2]; nc-siRNA) was “tighter TJ than the control already after 1 day of treatment, as demonstrated by increased TER”, the Cldn-1 expression ([3]; AR-siRNA) was “stimulated the expression of Cldn-1” and the Cldn-1 expression ([3]; ZIP9-siRNA) was “failed to do so”. For the same compound, the Cldn-1 expression ([3]; nc-siRNA) was “stimulated the expression of Cldn-1”, the CREB/ATF-1 phosphorylation ([4]; AR-siRNA) was “to the same extent as cells treated with nc-siRNA” and the CREB/ATF-1 phosphorylation ([4]; ZIP9-siRNA) was “failed to stimulate phosphorylation of CREB/ATF-1”. For the same compound, the CREB/ATF-1 phosphorylation ([4]; nc-siRNA) was “stimulated CREB/ATF-1 phosphorylation”, the “Stimulated ZO-1 fluorescence, nc-siRNA versus AR-siRNA” value [5] was “not significantly different” and the “ZO-1 expression (fluorescence signal)” value ([5]; ZIP9-siRNA) was “The ZO-1 fluorescence was unchanged by the ligands”. The “ZO-1 expression (fluorescence signal)” value ([5]; nc-siRNA) was “the ZO-1-corresponding signal was significantly intensified” and the “Concentration for maximum Erk1/2 phosphorylation” value ([6]; IAPG) was 10 µM.
For `C[C@]12CC[C@H]3[C@@H](CCC4=CC(=O)CC[C@@]43C)[C@@H]1CC[C@@H]2O` [testosterone], the “Prevention of T-BSA-FITC binding” value [1] is listed as “Its binding can be prevented”, the “TJ formation (TER)” value ([2]; AR-siRNA) is listed as “had the same effect” and the “TJ formation (TER)” value ([2]; ZIP9-siRNA) is listed as “failed to stimulate TJ formation”. For the same compound, the “TJ formation (TER)” value ([2]; nc-siRNA) was “tighter TJ than the control already after 1 day of treatment, as demonstrated by increased TER”, the Cldn-1 expression ([3]; AR-siRNA) was “stimulated the expression of Cldn-1” and the Cldn-1 expression ([3]; ZIP9-siRNA) was “failed to do so”. For the same compound, the Cldn-1 expression ([3]; nc-siRNA) was “stimulated the expression of Cldn-1”, the CREB/ATF-1 phosphorylation ([4]; AR-siRNA) was “to the same extent as cells treated with nc-siRNA” and the CREB/ATF-1 phosphorylation ([4]; ZIP9-siRNA) was “failed to stimulate phosphorylation of CREB/ATF-1”. The CREB/ATF-1 phosphorylation ([4]; nc-siRNA) was “stimulated CREB/ATF-1 phosphorylation”, the “Stimulated ZO-1 fluorescence, nc-siRNA versus AR-siRNA” value [5] was “not significantly different” and the “ZO-1 expression (fluorescence signal)” value ([5]; ZIP9-siRNA) was “The ZO-1 fluorescence was unchanged by the ligands”. For the same compound, the “ZO-1 expression (fluorescence signal)” value ([5]; nc-siRNA) was “the ZO-1-corresponding signal was significantly intensified” and the “Concentration for maximum Erk1/2 phosphorylation” value ([6]; testosterone) was 0.01 µM.
